Data published in US10946030B2, “Formulations of deoxycholic acid and salts thereof” (ALLERGAN SALES, LLC, priority 2011, dated 2021).
“Also recorded” adds a separate entry of the source.

What was measured:
[1] = Concentration dependent precipitation from aqueous sodium deoxycholate solution after storage, rated by visual inspection; assay type: physicochemical; conditions: 1 week storage; for Precipitation Rating: scale 0 = clear solution, 10 = substantial precipitation
Experimental: Solutions of sodium deoxycholate at different concentration were evaluated for precipitate formation after 1 week of storage. […] By visual inspection of FIGS. 1-4, the amount of precipitation can be rated as tabulated below.

[2] = pH measurement of sodium deoxycholate solutions; assay type: physicochemical
Description: The inverse aqueous solubility of sodium deoxycholate, where a more dilute solution (0.5% or 1%) provides more precipitation than a more concentrated solution (2%), is a surprising observation and also evidences that the precipitation phenomena is not directly related to pH, because the pH of the solutions were substantially the same again, especially for the 1% and 2% solutions.

C[C@H](CCC(=O)[O-])[C@H]1CCC2C3CC[C@@H]4C[C@H](O)CC[C@]4(C)C3C[C@H](O)[C@@]21C.[Na+] (stereo partly drawn) [Sodium Deoxycholate, sodium (4R)-4-((3R,5R,10S,12S,13R,17R)-3,12-dihydroxy-10,13-dimethylhexadecahydro-1H-cyclopenta[a]phenanthren-17-yl)pentanoate]
Precipitate observed (Comment) ([1]; 0.5% w/v in water + 0.9% w/v benzyl alcohol, FIG. 2): Significant amounts of precipitate visible | Precipitate observed (Comment) ([1]; 0.5% w/v in water + 0.9% w/v benzyl alcohol, FIG. 2, listed as sodium deoxycholate): a significant amount of precipitate is formed; also recorded: significant amounts of precipitate | Precipitation Rating ([1]; 0.5% w/v in water + 0.9% w/v benzyl alcohol): 10 | Precipitate observed (Comment) ([1]; 1% w/v in water + 0.9% w/v benzyl alcohol, FIG. 3): Significant amounts of precipitate visible | Precipitate observed (Comment) ([1]; 1% w/v in water + 0.9% w/v benzyl alcohol, FIG. 3, listed as sodium deoxycholate): a significant amount of precipitate is formed; also recorded: significant amounts of precipitate, albeit less than that of 0.5% w/v sodium deoxycholate | Precipitation Rating ([1]; 1.0% w/v in water + 0.9% w/v benzyl alcohol): 7 | Precipitate observed (Comment) ([1]; 2% w/v in water + 0.9% w/v benzyl alcohol, FIG. 4): Precipitation visible to the naked eye but | Precipitate observed (Comment) ([1]; 2% w/v in water + 0.9% w/v benzyl alcohol, FIG. 4, listed as sodium deoxycholate): significant amounts of precipitate but substantially less than that observed in FIGS. 2 and 3 | Precipitation Rating ([1]; 2.0% w/v in water + 0.9% w/v benzyl alcohol): 2 | pH ([2]; 0.5% w/v solution, reading 1, 24.7 °C): 7.77 | pH ([2]; 0.5% w/v solution, reading 2, 24.5 °C): 7.71 | pH ([2]; 1% w/v solution, reading 1, 24.6 °C): 7.93 | pH ([2]; 1% w/v solution, reading 2, 24.5 °C): 7.97 | pH ([2]; 2% w/v solution, reading 1, 24.9 °C): 8.07 | pH ([2]; 2% w/v solution, reading 2, 24.7 °C): 8.06
